Tests used:
Salmonella typhimurium [1] = assay: Antimutagenic activity in Salmonella Typhimurium T-98 assessed as inhibition of 2-aminoanthracene-induced mutation at 300 ug/plate; format: functional, Salmonella enterica subsp. enterica serovar Typhimurium
Salmonella typhimurium [2] = assay: Antimutagenic activity in Salmonella Typhimurium T-98 assessed as inhibition of 2-aminoanthracene-induced mutation at 150 ug/plate; format: functional, Salmonella enterica subsp. enterica serovar Typhimurium
Salmonella typhimurium [3] = assay: Antimutagenic activity in Salmonella Typhimurium T-98 assessed as inhibition of 2-aminoanthracene-induced mutation at 75 ug/plate; format: functional, Salmonella enterica subsp. enterica serovar Typhimurium
Salmonella typhimurium [4] = assay: Antimutagenic activity in Salmonella Typhimurium T-98 assessed as inhibition of 2-aminoanthracene-induced mutation at 37.5 ug/plate; format: functional, Salmonella enterica subsp. enterica serovar Typhimurium
Salmonella typhimurium [5] = assay: Antimutagenic activity in Salmonella Typhimurium assessed as inhibition of 2-aminoanthracene-induced mutation at 0.6 mg/plate; format: functional, Salmonella enterica subsp. enterica serovar Typhimurium
Salmonella typhimurium [6] = assay: Antimutagenic activity in Salmonella Typhimurium assessed as inhibition of 2-aminoanthracene-induced mutation at 0.3 mg/plate; format: functional, Salmonella enterica subsp. enterica serovar Typhimurium
Salmonella typhimurium [7] = assay: Antimutagenic activity in Salmonella Typhimurium T-98 assessed as inhibition of acetylaminofluorene-induced mutation at 300 ug/plate; format: functional, Salmonella enterica subsp. enterica serovar Typhimurium
Salmonella typhimurium [8] = assay: Antimutagenic activity in Salmonella Typhimurium T-98 assessed as inhibition of acetylaminofluorene-induced mutation at 150 ug/plate; format: functional, Salmonella enterica subsp. enterica serovar Typhimurium
Salmonella typhimurium [9] = assay: Antimutagenic activity in Salmonella Typhimurium T-98 assessed as inhibition of acetylaminofluorene-induced mutation at 75 ug/plate; format: functional, Salmonella enterica subsp. enterica serovar Typhimurium
Salmonella typhimurium [10] = assay: Antimutagenic activity in Salmonella Typhimurium T-98 assessed as inhibition of acetylaminofluorene-induced mutation at 37.5 ug/plate; format: functional, Salmonella enterica subsp. enterica serovar Typhimurium
Salmonella typhimurium [11] = assay: Antimutagenic activity in Salmonella Typhimurium T-100 assessed as inhibition of ethyl methanesulfonate-induced mutation at 300 ug/plate; format: functional, Salmonella enterica subsp. enterica serovar Typhimurium
Salmonella typhimurium [12] = assay: Antimutagenic activity in Salmonella Typhimurium T-100 assessed as inhibition of ethyl methanesulfonate-induced mutation at 150 ug/plate; format: functional, Salmonella enterica subsp. enterica serovar Typhimurium
Salmonella typhimurium [13] = assay: Antimutagenic activity in Salmonella Typhimurium T-100 assessed as inhibition of ethyl methanesulfonate-induced mutation at 75 ug/plate; format: functional, Salmonella enterica subsp. enterica serovar Typhimurium
Salmonella typhimurium [14] = assay: Antimutagenic activity in Salmonella Typhimurium T-100 assessed as inhibition of ethyl methanesulfonate-induced mutation at 37.5 ug/plate; format: functional, Salmonella enterica subsp. enterica serovar Typhimurium
Salmonella typhimurium [15] = assay: Toxicity to Salmonella Typhimurium at 0.3 to 0.075 mg/plate; format: organism-based, Salmonella enterica subsp. enterica serovar Typhimurium; conditions: in vivo
Salmonella typhimurium [16] = assay: Toxicity to Salmonella Typhimurium at 0.6 mg/plate; format: organism-based, Salmonella enterica subsp. enterica serovar Typhimurium; conditions: in vivo

| Structure (SMILES) | inhibition (INH) (Salmonella typhimurium [1]) [%] | inhibition (INH) (Salmonella typhimurium [2]) [%] | inhibition (INH) (Salmonella typhimurium [3]) [%] | inhibition (INH) (Salmonella typhimurium [4]) [%] | inhibition (INH) (Salmonella typhimurium [5]) [%] | inhibition (INH) (Salmonella typhimurium [6]) [%] | inhibition (INH) (Salmonella typhimurium [7]) [%] | inhibition (INH) (Salmonella typhimurium [8]) [%] | inhibition (INH) (Salmonella typhimurium [9]) [%] | inhibition (INH) (Salmonella typhimurium [10]) [%] | inhibition (INH) (Salmonella typhimurium [11]) [%] | inhibition (INH) (Salmonella typhimurium [12]) [%] | inhibition (INH) (Salmonella typhimurium [13]) [%] | inhibition (INH) (Salmonella typhimurium [14]) [%] | Activity (Salmonella typhimurium [15]) | Activity (Salmonella typhimurium [16]) |
| --- | --- | --- | --- | --- | --- | --- | --- | --- | --- | --- | --- | --- | --- | --- | --- | --- |
| C=CC(C)(C)c1cc(-c2coc3cc(O)cc(O)c3c2=O)c(O)cc1O [FREMONTIN] | 93 | 24 | 0 | 65 | 92 | 92 | 0 | 0 | 0 | 0 | 87 | 81 | 90 | 58 | Non-toxic |  |
| C=CC(C)(C)c1cc(-c2coc3cc(O)cc(O)c3c2=O)c(O)c(CC=C(C)C)c1O [FREMONTONE] | 93 | 17 | 78 | 89 |  |  | 70 | 27 | 3 | 0 | 94 | 86 | 81 | 63 | Non-toxic | Non-toxic |

Reference: ChEMBL document CHEMBL1147294, “Plant antimutagenic agents, 5. Isolation and structure of two new isoflavones, fremontin and fremontone from Psorothamnus fremontii” (J Nat Prod, 1989)
